The results in this text go back to ChEMBL document CHEMBL1134300, “Oxindole-based inhibitors of cyclin-dependent kinase 2 (CDK2): design, synthesis, enzymatic activities, and X-ray crystallographic analysis” (J Med Chem, 2001).

In assay [1] the target is Cyclin-dependent kinase 1 (Homo sapiens, UniProt P06493).
Description: Inhibitory activity against human cyclin-dependent kinase 1 (CDK1)
The target in assay [2] is Cyclin-dependent kinase 2 (Homo sapiens, UniProt P24941).
Description: Inhibitory activity against human cyclin-dependent kinase 2 (CDK2)

Bounds are passed on as bounds.

Sequence of Cyclin-dependent kinase 1 (P06493 whole entry): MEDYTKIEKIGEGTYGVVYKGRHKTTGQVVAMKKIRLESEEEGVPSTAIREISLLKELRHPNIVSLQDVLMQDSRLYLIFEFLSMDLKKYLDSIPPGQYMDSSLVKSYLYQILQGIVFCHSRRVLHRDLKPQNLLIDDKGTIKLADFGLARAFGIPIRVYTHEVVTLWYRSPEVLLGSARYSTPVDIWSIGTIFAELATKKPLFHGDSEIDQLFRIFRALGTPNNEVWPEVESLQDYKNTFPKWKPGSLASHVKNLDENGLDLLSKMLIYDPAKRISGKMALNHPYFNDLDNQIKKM

Take `CC(C)(CO)CNC(=O)c1ccc2c(c1)C(=NNc1ccc(S(N)(=O)=O)cc1)C(=O)N2` [GW301784X]: the 50% inhibitory concentration (IC50) was found to be 60 nM in assay [1] and 6.8 nM in assay [2].

As to `COC(=O)c1ccc2c(c1)/C(=C/Nc1ccc(S(N)(=O)=O)cc1)C(=O)N2`, the concentration for half-maximal inhibition (IC50) in assay [1] worked out at 12 nM; in assay [2], 2.1 nM.

For `CC(C)Cc1cccc2c1C(=NNc1ccc(S(N)(=O)=O)cc1)C(=O)N2`, the 50% inhibitory concentration (IC50) in assay [1] is 19 nM; in assay [2], 1.2 nM.

As to `CN(C)c1ccc2c(c1)/C(=C/Nc1ccc(S(N)(=O)=O)cc1)C(=O)N2` [GW416469X], the results for the IC50 in assay [1] and in assay [2] were 2800 nM and 310 nM, respectively.

Turning to `CN(C)CCNS(=O)(=O)c1ccc(N/C=C2\C(=O)Nc3ccccc32)cc1`, the IC50 in assay [1] came to 5500 nM; in assay [2], 1000 nM.

For `CN(C)S(=O)(=O)c1ccc(N/C=C2\C(=O)Nc3ccc4ncsc4c32)cc1`, the results for the half-inhibitory concentration (IC50) in assay [1] and in assay [2] were 50 nM and 4.6 nM, respectively.

Turning to `NS(=O)(=O)c1ccc(N/N=C2\C(=O)Nc3ccc(Cl)cc32)cc1` [GW280670X], the half-inhibitory concentration (IC50) in assay [1] was found to be 300 nM; in assay [2] it was 43 nM.

Take `NS(=O)(=O)c1ccc(NN=C2C(=O)Nc3ccc(I)cc32)cc1`: the 50% inhibitory concentration (IC50) came out at 95 nM in assay [1] and 11 nM in assay [2].

On to `NS(=O)(=O)c1ccc(NN=C2C(=O)Nc3ccc(C(=O)NCc4cccnc4)cc32)cc1`, for which the IC50 in assay [1] was determined as 51 nM; in assay [2], 2.1 nM.

As to `Cc1cc(C)c2c(c1)/C(=C/Nc1ccc(S(N)(=O)=O)cc1)C(=O)N2`, the IC50 in assay [1] and in assay [2] was greater than 10000 nM each time.

Consider `NS(=O)(=O)c1ccc(N/C=C2\C(=O)Nc3cccc(CO)c32)cc1`, for which the results for the IC50 in assay [1] and in assay [2] were 1700 nM and 54 nM, respectively.

With `O=C1Nc2ccc3ncsc3c2/C1=C/Nc1ccc(S(=O)(=O)NCCO)cc1`, the IC50 in assay [1] was found to be 41 nM; in assay [2] it was 4.7 nM.

Regarding `O=C1Nc2ccc3ncsc3c2/C1=C/Nc1ccc(S(=O)(=O)NCCc2c[nH]cn2)cc1`, the figures for the IC50 in assay [1] and in assay [2] were 38 nM and 3.6 nM, respectively.

The IC50 is the midpoint of a concentration-inhibition curve.
